In brackets after ≈: the same amount, converted by molar mass. Several values for one entry are separate records, joined by “and”; a condition that tells them apart may be missing. Identical values can stand only once. Like-named read-outs stand apart in the source and are kept apart here.
Tests used:
[1] = human liver microsomes
T. cruzi (Tulahuen TcVI) [2] = experiment: Initial PK/PD efficacy: 10-day once daily oral dosing of T. cruzi infected mice; format: in vivo, Swiss mice; details: 20 mg/kg oral once daily for up to 10 days
T. cruzi (Tulahuen TcVI) [3] = test system: T. cruzi (Tulahuen TcVI)
T. cruzi [4] = details: twice daily treatment for 30 days, acute and chronic models; cited from earlier work
[5] = test system: T. cruzi (Tulahuen strain (Tc VI) transfected with β-galactosidase), amastigote form; experiment: microbe, parasite or virus in culture; details: Trypanosoma cruzi
in vitro = details: rat, L6 IC50 (cytotoxicity), L6 cells
T. cruzi [6] = details: cited from earlier work
T. cruzi (Tulahuen TcVI) [7] = details: once daily oral 20 mg/kg for 20 days, cited from earlier work
physchem = details: pH 2
[8] = 20 mg/kg oral once daily 20 days, day 8 = first compound dose
[9] = 20 mg/kg oral once daily 20 days, end after three cycles of immunosuppression
[10] = 20 mg/kg oral once daily 20 days, first day of nontreatment period
[11] = 20 mg/kg oral once daily 20 days, last day of nontreatment period
[12] = 20 mg/kg, PCR of blood, spleen, heart, skeletal muscle, colon
[13] = 5 mg/kg oral once daily 20 days
[14] = 10 mg/kg oral once daily 20 days
[15] = 100 mg/kg oral once daily 20 days
[16] = 20 mg/kg oral once daily 20 days

O=C(C(c1ccc(Cl)cc1)c1cccnc1)N1CCN(c2ccc(C(F)(F)F)cc2)CC1 (racemic) [(rac)-7, 2-(4-Chlorophenyl)-1-{4-[4-(trifluoromethyl)phenyl]piperazin-1-yl}-2-(pyridin-3-yl)ethanone]
predicted human EH ([1]; Table 2): 0.50
parasites cleared from blood during 10-day dosing? (T. cruzi (Tulahuen TcVI) [2]): yes
cure by PCR analyses of organs and blood (T. cruzi (Tulahuen TcVI) [3]; 20 mg/kg daily oral): no cures were obtained
mouse survival after infection, day 8 (T. cruzi (Tulahuen TcVI) [3]; [8]): 5 of 5
mouse survival after infection, day 58 (T. cruzi (Tulahuen TcVI) [3]; [9]): 3 of 5
mouse survival after infection, day 28 (T. cruzi (Tulahuen TcVI) [3]; [10]): 5 of 5
mouse survival after infection, day 37 (T. cruzi (Tulahuen TcVI) [3]; [11]): 5 out of 5 and 5 of 5
–ve PCR (T. cruzi (Tulahuen TcVI) [3]; [12]): 0 of 3

O=C([C@H](c1ccc(Cl)cc1)c1cccnc1)N1CCN(c2ccc(C(F)(F)F)cc2)CC1 [(R)-7, 2-(4-Chlorophenyl)-1-{4-[4-(trifluoromethyl)phenyl]piperazin-1-yl}-2-(pyridin-3-yl)ethanone]
predicted human EH ([1]; Table 2): 0.61

O=C([C@@H](c1ccc(Cl)cc1)c1cccnc1)N1CCN(c2ccc(C(F)(F)F)cc2)CC1 [(S)-7, 2-(4-Chlorophenyl)-1-{4-[4-(trifluoromethyl)phenyl]piperazin-1-yl}-2-(pyridin-3-yl)ethanone]
predicted human EH ([1]; Table 2): 0.53
cure by PCR analyses of organs and blood (T. cruzi (Tulahuen TcVI) [3]; 5 mg/kg daily oral): cure had not been achieved
mouse survival after infection, day 8 (T. cruzi (Tulahuen TcVI) [3]; [13]): 4 of 4
mouse survival after infection, day 28 (T. cruzi (Tulahuen TcVI) [3]; [13]): 4 of 4
mouse survival after infection, day 37 (T. cruzi (Tulahuen TcVI) [3]; [13]): 4 of 4
mouse survival after infection, day 58 (T. cruzi (Tulahuen TcVI) [3]; [13]): 3 out of 4 and 3 of 4
–ve PCR (T. cruzi (Tulahuen TcVI) [3]; 5 mg/kg, PCR of blood and tissues): 0 of 3
mouse survival after infection, day 8 (T. cruzi (Tulahuen TcVI) [3]; [14]): 4 of 4
mouse survival after infection, day 28 (T. cruzi (Tulahuen TcVI) [3]; [14]): 4 of 4
mouse survival after infection, day 37 (T. cruzi (Tulahuen TcVI) [3]; [14]): 4 of 4
mouse survival after infection, day 58 (T. cruzi (Tulahuen TcVI) [3]; [14]): 3 of 4
–ve PCR (T. cruzi (Tulahuen TcVI) [3]; 10 mg/kg, PCR of blood and tissues): 2 out of the 3 and 2 of 3

O=C(N[C@@H](Cn1ccnc1)c1ccc(Cl)cc1Cl)c1ccc(-c2nnc(-c3ccccc3)o2)cc1 [VNI]
parasitological cure (T. cruzi [4]): parasitological cure

O=C(Cn1ccnc1[N+](=O)[O-])NCc1ccccc1 [benznidazole, reference compound]
IC50 ([5]; read-out: Tc IC50): 1500 nM
parasites in blood during the immunosuppression phase (T. cruzi (Tulahuen TcVI) [3]; 100 mg/kg oral): re-emergence of parasites in blood
mouse survival after infection, day 8 (T. cruzi (Tulahuen TcVI) [3]; [15]): 5 of 5
mouse survival after infection, day 28 (T. cruzi (Tulahuen TcVI) [3]; [15]): 4 of 5
mouse survival after infection, day 37 (T. cruzi (Tulahuen TcVI) [3]; [15]): 4 of 5
mouse survival after infection, day 58 (T. cruzi (Tulahuen TcVI) [3]; [15]): 0 of 5
IC50 (in vitro): > 100000 nM
adult patients experiencing serious adverse reactions (T. cruzi [6]): up to 30%
cure rates, acute stage of the infection (T. cruzi [6]; patients): up to 60%

N#Cc1ccc(C(O)(c2ccc(C(F)(F)F)cc2)c2cccnc2)cc1 (centres unmarked) [compound 2, 4-(hydroxy(pyridin-3-yl)[4-(trifluoromethyl)phenyl]methyl)benzonitrile]
parasitological cure (T. cruzi (Tulahuen TcVI) [7]; three cycles of immunosuppression): had not achieved a parasitological cure
IC50 [5]: 12 nM
parasites cleared from blood during 10-day dosing? (T. cruzi (Tulahuen TcVI) [2]): yes

N#Cc1ccc(C(c2cccnc2)N2CCC(NC(=O)c3c(F)cccc3F)CC2)cc1 (centres unmarked) [compound 4]
parasites cleared from blood during 10-day dosing? (T. cruzi (Tulahuen TcVI) [2]): no

Fc1cc(Cl)ccc1C(NC1CCN(c2ccc(C(F)(F)F)cc2)CC1)c1cccnc1 (centres unmarked) [compound 5]
parasites cleared from blood during 10-day dosing? (T. cruzi (Tulahuen TcVI) [2]): yes

FC(F)(F)c1ccc(N(c2cccnc2)C2CCN(c3ccc(C(F)(F)F)cn3)CC2)cc1 [compound 6, N-[4-(Trifluoromethyl)phenyl]-N-(1-[5-(trifluoromethyl)pyridin-2-yl]piperidin-4-yl)pyridin-3-amine]
predicted human EH ([1]; Table 1): 0.68
parasites cleared from blood during 10-day dosing? (T. cruzi (Tulahuen TcVI) [2]): yes
mice microscopically parasite free following three cycles of immunosuppression (T. cruzi (Tulahuen TcVI) [3]; [16]): 3 out of 4
mice parasite free at the end of dosing (T. cruzi (Tulahuen TcVI) [3]; [16]): 4 out of 5
mouse survival after infection, day 8 (T. cruzi (Tulahuen TcVI) [3]; [8]): 5 of 5
mouse survival after infection, day 58 (T. cruzi (Tulahuen TcVI) [3]; [9]): 3 of 5
mouse survival after infection, day 28 (T. cruzi (Tulahuen TcVI) [3]; [10]): 4 of 5
mouse survival after infection, day 37 (T. cruzi (Tulahuen TcVI) [3]; [11]): 4 of 5
–ve PCR (T. cruzi (Tulahuen TcVI) [3]; [12]): 3 of 3
parasitological cure (T. cruzi (Tulahuen TcVI) [3]; lower doses, 5 and 10 mg/kg, data not shown): parasitological cure was not observed

CC(C)(C)CC(=O)N1CCC(N(c2ccc(Cl)cc2)c2cccnc2)CC1 [compound 16]
predicted human EH ([1]; Table 1): 0.91

Cc1ccccc1CN1CCC(N(c2ccc(C(F)(F)F)cc2)c2cccnc2)CC1 [compound 22]
predicted human EH ([1]; Table 1): 0.87

N#Cc1ccccc1N1CCC(N(c2ccc(C(F)(F)F)cc2)c2cccnc2)CC1 [compound 25]
predicted human EH ([1]; Table 1): 0.88

FC(F)(F)c1ccc(N(c2cccnc2)C2CCN(c3ccc(Cl)cc3)CC2)cc1 [compound 27]
predicted human EH ([1]; Table 1): 0.65

N#Cc1ccc(N(c2cccnc2)C2CCN(c3ccc(C(F)(F)F)cc3)CC2)cc1 [compound 31]
predicted human EH ([1]; Table 1): 0.69

CS(=O)(=O)c1ccc(N2CCC(N(c3ccc(C#N)cc3)c3cccnc3)CC2)cc1 [compound 33]
predicted human EH ([1]; Table 1): 0.47

FC(F)(F)c1ccc(N(c2cncnc2)C2CCN(c3ccc(C(F)(F)F)cn3)CC2)cc1 [compound 34]
predicted human EH ([1]; Table 1): 0.63

N#Cc1ccc(C(C(=O)N2CCN(c3ccc(C(F)(F)F)cc3)CC2)c2cccnc2)cc1 (centres unmarked) [compound 40]
predicted human EH ([1]; Table 2): 0.70

O=C(C(c1ccc(Cl)cc1)c1cccnc1)N1CCN(c2ccc(C(F)(F)F)nc2)CC1 (centres unmarked) [compound 41]
predicted human EH ([1]; Table 2): 0.77

N#Cc1ccc(C(C(=O)N2CCN(c3ccc(C(F)(F)F)nc3)CC2)c2cccnc2)cc1 (centres unmarked) [compound 42]
predicted human EH ([1]; Table 2): 0.56

O=C(C(c1ccc(Cl)cc1)c1cccnc1)N1CCN(c2ccc(C(F)(F)F)cn2)CC1 (centres unmarked) [compound 43]
predicted human EH ([1]; Table 2): 0.70
solubility (physchem): 25 µg/mL (≈ 54.2 µM)

N#Cc1ccc(C(C(=O)N2CCN(c3ccc(C(F)(F)F)cn3)CC2)c2cccnc2)cc1 (centres unmarked) [compound 44]
predicted human EH ([1]; Table 2): 0.56

CS(=O)(=O)c1ccc(N2CCN(C(=O)C(c3ccc(Cl)cc3)c3cccnc3)CC2)cc1 (centres unmarked) [compound 45]
predicted human EH ([1]; Table 2): 0.82

CS(=O)(=O)c1ccc(N2CCN(C(=O)C(c3ccc(C#N)cc3)c3cccnc3)CC2)cc1 (centres unmarked) [compound 46]
predicted human EH ([1]; Table 2): 0.46

N#Cc1ccc(C(c2cccnc2)N2CCC(NC(=O)c3ccccc3)CC2)cc1 (centres unmarked) [compound 47]
parasites cleared from blood during 10-day dosing? (T. cruzi (Tulahuen TcVI) [2]): no

N#Cc1cccc(N2CCC(NC(c3cccnc3)c3ccc(Cl)cc3F)CC2)c1 (centres unmarked) [compound 48]
parasites cleared from blood during 10-day dosing? (T. cruzi (Tulahuen TcVI) [2]): no

Cc1cc(C(=O)NC2CCN(C(c3ccc(C#N)cc3)c3cccnc3)CC2)n(C)n1 (centres unmarked) [compound 50]
parasites cleared from blood during 10-day dosing? (T. cruzi (Tulahuen TcVI) [2]): no

Cc1ncsc1C(=O)N1CCC(NC(c2ccc(C(F)(F)F)cc2)c2cccnc2)CC1 (centres unmarked) [compound 51]
parasites cleared from blood during 10-day dosing? (T. cruzi (Tulahuen TcVI) [2]): no

N#Cc1ccc(C(O)(c2ccc(C(F)(F)F)cc2)c2cccnc2)c(F)c1 (centres unmarked) [compound 52]
IC50 [5]: 2 nM
parasites cleared from blood during 10-day dosing? (T. cruzi (Tulahuen TcVI) [2]): yes

CC[C@@H]([C@H](C)O)n1ncn(-c2ccc(N3CCN(c4ccc(OC[C@@H]5CO[C@@](Cn6cncn6)(c6ccc(F)cc6F)C5)cc4)CC3)cc2)c1=O [posaconazole, reference compound]
mice cured (T. cruzi (Tulahuen TcVI) [7]; subchronic mouse model): ~60%
IC50 ([5]; read-out: Tc IC50): 0.7 nM
parasites cleared from blood during 10-day dosing? (T. cruzi (Tulahuen TcVI) [2]): yes
IC50 (in vitro): > 100000 nM
